Measured values: PubChem BioAssay (NCI)
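Values below derive from 48-hour exposures of cells grown in 96-well plates, with endpoints linearly interpolated between the two concentrations bracketing the appropriate inhibition level. The concentration for 50% growth inhibition is given as GI50. At the TGI there is no net growth.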

Experiments:
Assay in all cases: inhibition of tumour cell growth, NCI panel, 48 h
SR leukemia = tested on: SR leukemia
SNB-75 CNS = tested on: SNB-75 CNS
UACC-257 melanoma = tested on: UACC-257 melanoma
RXF 393 renal = tested on: RXF 393 renal
SK-MEL-2 melanoma = tested on: SK-MEL-2 melanoma
SN12C renal = tested on: SN12C renal
MCF7 breast = tested on: MCF7 breast
SK-OV-3 ovarian = tested on: SK-OV-3 ovarian
HCT-116 colon = tested on: HCT-116 colon
MDA-MB-435 = tested on: MDA-MB-435
UACC-62 melanoma = tested on: UACC-62 melanoma
HT29 colon = tested on: HT29 colon
MOLT-4 leukemia = tested on: MOLT-4 leukemia
SK-MEL-28 melanoma = tested on: SK-MEL-28 melanoma
IGROV1 ovarian = tested on: IGROV1 ovarian
NCI-H226 lung = tested on: NCI-H226 lung
PC-3 prostate = tested on: PC-3 prostate
T-47D breast = tested on: T-47D breast
SF-539 CNS = tested on: SF-539 CNS
LOX IMVI melanoma = tested on: LOX IMVI melanoma
ACHN renal = tested on: ACHN renal
NCI-H522 lung = tested on: NCI-H522 lung
UO-31 renal = tested on: UO-31 renal
HOP-92 NSCLC = tested on: HOP-92 NSCLC
HCC-2998 colon = tested on: HCC-2998 colon
SF-268 CNS = tested on: SF-268 CNS
COLO 205 colon = tested on: COLO 205 colon
OVCAR-3 ovarian = tested on: OVCAR-3 ovarian
TK-10 renal = tested on: TK-10 renal
BT-549 breast = tested on: BT-549 breast
KM12 colon = tested on: KM12 colon
MALME-3M melanoma = tested on: MALME-3M melanoma
A549 NSCLC = tested on: A549 NSCLC
M14 melanoma = tested on: M14 melanoma
SW-620 colon = tested on: SW-620 colon
CAKI-1 renal = tested on: CAKI-1 renal
MDA-MB-231 breast = tested on: MDA-MB-231 breast
A498 renal = tested on: A498 renal
HS 578T breast = tested on: HS 578T breast
CCRF-CEM leukemia = tested on: CCRF-CEM leukemia
HOP-62 NSCLC = tested on: HOP-62 NSCLC
NCI/ADR-RES ovarian = tested on: NCI/ADR-RES ovarian
786-0 renal = tested on: 786-0 renal
SF-295 CNS = tested on: SF-295 CNS
SNB-19 CNS = tested on: SNB-19 CNS
DU-145 prostate = tested on: DU-145 prostate
EKVX NSCLC = tested on: EKVX NSCLC
OVCAR-5 ovarian = tested on: OVCAR-5 ovarian
K-562 leukemia = tested on: K-562 leukemia
MDA-MB-468 breast = tested on: MDA-MB-468 breast
NCI-H23 lung = tested on: NCI-H23 lung
U251 CNS = tested on: U251 CNS
HL-60(TB) leukemia = tested on: HL-60(TB) leukemia
HCT-15 colon = tested on: HCT-15 colon
SK-MEL-5 melanoma = tested on: SK-MEL-5 melanoma
NCI-H460 lung = tested on: NCI-H460 lung
OVCAR-8 ovarian = tested on: OVCAR-8 ovarian
OVCAR-4 ovarian = tested on: OVCAR-4 ovarian

For `CCCn1c(=O)c2[nH]c(-c3ccc(OCc4nc5ccccc5[nH]4)cc3)nc2n(CCC)c1=O`, the GI50 (SR leukemia) was > 100 µM, the TGI (SR leukemia) was > 100 µM and the GI50 (SNB-75 CNS) was 1.63 µM. The TGI (SNB-75 CNS) was 5.21 µM, the GI50 (UACC-257 melanoma) was 48 µM and the TGI (UACC-257 melanoma) was > 100 µM. For the same molecule, the GI50 (RXF 393 renal) was 2.06 µM, the TGI (RXF 393 renal) was 6.94 µM and the GI50 (SK-MEL-2 melanoma) was 17.6 µM. For the same molecule, the TGI (SK-MEL-2 melanoma) was 34.4 µM, the GI50 (SN12C renal) was 9.67 µM and the TGI (SN12C renal) was 45.7 µM. For the same molecule, the GI50 (MCF7 breast) was 3.32 µM, the TGI (MCF7 breast) was 18.6 µM and the GI50 (SK-OV-3 ovarian) was 15 µM. For the same molecule, the TGI (SK-OV-3 ovarian) was 32 µM, the GI50 (HCT-116 colon) was 3.94 µM and the TGI (HCT-116 colon) was > 100 µM. For the same molecule, the GI50 (MDA-MB-435) was 13 µM, the TGI (MDA-MB-435) was > 100 µM and the GI50 (UACC-62 melanoma) was 12 µM. For the same molecule, the TGI (UACC-62 melanoma) was 28.8 µM, the GI50 (HT29 colon) was 13.2 µM and the TGI (HT29 colon) was > 100 µM. The GI50 (MOLT-4 leukemia) was > 100 µM, the TGI (MOLT-4 leukemia) was > 100 µM and the GI50 (SK-MEL-28 melanoma) was 33.5 µM. The TGI (SK-MEL-28 melanoma) was > 100 µM, the GI50 (IGROV1 ovarian) was 15.3 µM and the TGI (IGROV1 ovarian) was 42.8 µM. For the same molecule, the GI50 (NCI-H226 lung) was 2.4 µM, the TGI (NCI-H226 lung) was 7.25 µM and the GI50 (PC-3 prostate) was 17.6 µM. The TGI (PC-3 prostate) was > 100 µM, the GI50 (T-47D breast) was 27.9 µM and the TGI (T-47D breast) was > 100 µM. It also gave a GI50 (SF-539 CNS) of 2.12 µM, a TGI (SF-539 CNS) of 5.25 µM and a GI50 (LOX IMVI melanoma) of 3.47 µM. The TGI (LOX IMVI melanoma) was 14.7 µM, the GI50 (ACHN renal) was 5 µM and the TGI (ACHN renal) was 24.9 µM. The GI50 (NCI-H522 lung) was 11.3 µM, the TGI (NCI-H522 lung) was 34.3 µM and the GI50 (UO-31 renal) was 14.5 µM. It also gave a TGI (UO-31 renal) of 43.4 µM, a GI50 (HOP-92 NSCLC) of 5.18 µM and a TGI (HOP-92 NSCLC) of 25.3 µM. The GI50 (HCC-2998 colon) was 11.9 µM, the TGI (HCC-2998 colon) was > 100 µM and the GI50 (SF-268 CNS) was 9.2 µM. For the same molecule, the TGI (SF-268 CNS) was 38.8 µM, the GI50 (COLO 205 colon) was > 100 µM and the TGI (COLO 205 colon) was > 100 µM. For the same molecule, the GI50 (OVCAR-3 ovarian) was 5.46 µM, the TGI (OVCAR-3 ovarian) was 23.4 µM and the GI50 (TK-10 renal) was 6.89 µM. The TGI (TK-10 renal) was 22.2 µM, the GI50 (BT-549 breast) was 8.41 µM and the TGI (BT-549 breast) was 45.5 µM. The GI50 (KM12 colon) was > 100 µM, the TGI (KM12 colon) was > 100 µM and the GI50 (MALME-3M melanoma) was 3.43 µM. The TGI (MALME-3M melanoma) was 16.4 µM, the GI50 (A549 NSCLC) was 5.92 µM and the TGI (A549 NSCLC) was > 100 µM. The GI50 (M14 melanoma) was 26.2 µM, the TGI (M14 melanoma) was > 100 µM and the GI50 (SW-620 colon) was 18 µM. The TGI (SW-620 colon) was > 100 µM, the GI50 (CAKI-1 renal) was 2.95 µM and the TGI (CAKI-1 renal) was 11.9 µM. It also gave a GI50 (MDA-MB-231 breast) of 3.37 µM, a TGI (MDA-MB-231 breast) of 12.6 µM and a GI50 (A498 renal) of 14.3 µM. It also gave a TGI (A498 renal) of 32.3 µM, a GI50 (HS 578T breast) of 2.3 µM and a TGI (HS 578T breast) of 7.76 µM. For the same molecule, the GI50 (CCRF-CEM leukemia) was > 100 µM, the TGI (CCRF-CEM leukemia) was > 100 µM and the GI50 (HOP-62 NSCLC) was 8.39 µM. The TGI (HOP-62 NSCLC) was 24.3 µM, the GI50 (NCI/ADR-RES ovarian) was 19.2 µM and the TGI (NCI/ADR-RES ovarian) was > 100 µM. For the same molecule, the GI50 (786-0 renal) was 2.83 µM, the TGI (786-0 renal) was 10.6 µM and the GI50 (SF-295 CNS) was 3.04 µM. For the same molecule, the TGI (SF-295 CNS) was 13.3 µM, the GI50 (SNB-19 CNS) was 13.9 µM and the TGI (SNB-19 CNS) was 33.1 µM. The TGI (DU-145 prostate) was > 100 µM, the GI50 (EKVX NSCLC) was 23.5 µM and the TGI (EKVX NSCLC) was > 100 µM. For the same molecule, the GI50 (OVCAR-5 ovarian) was 46.5 µM, the TGI (OVCAR-5 ovarian) was > 100 µM and the GI50 (K-562 leukemia) was > 100 µM. For the same molecule, the TGI (K-562 leukemia) was > 100 µM, the GI50 (MDA-MB-468 breast) was 3.13 µM and the TGI (MDA-MB-468 breast) was 16.1 µM. For the same molecule, the GI50 (NCI-H23 lung) was 5.95 µM, the TGI (NCI-H23 lung) was 18.1 µM and the GI50 (U251 CNS) was 3.83 µM. For the same molecule, the TGI (U251 CNS) was 18.4 µM, the GI50 (HL-60(TB) leukemia) was > 100 µM and the TGI (HL-60(TB) leukemia) was > 100 µM. For the same molecule, the GI50 (HCT-15 colon) was 31.9 µM, the TGI (HCT-15 colon) was > 100 µM and the GI50 (SK-MEL-5 melanoma) was 4.05 µM. It also gave a TGI (SK-MEL-5 melanoma) of 28 µM, a GI50 (NCI-H460 lung) of 3.7 µM and a TGI (NCI-H460 lung) of 15.1 µM. It also gave a GI50 (OVCAR-8 ovarian) of 8.28 µM, a TGI (OVCAR-8 ovarian) of 45.4 µM and a GI50 (OVCAR-4 ovarian) of 2.99 µM. It also gave a TGI (OVCAR-4 ovarian) of 53 µM.
